Test results from patent publication US12679843B2, “Pyrrolopyrimidine amines as complement inhibitors” (BioCryst Pharmaceuticals, Inc., priority 2020, dated 2026).

Molecular target: Factor D (Homo sapiens, UniProt P00746)
Experiment: Factor D esterolytic assay (Z-Lys-SBzl thioester substrate, DTNB, 405 nm)
Format: biochemical
Details: substrate Z-Lys-SBzl 1.29 mM, 100 mM HEPES, 500 mM NaCl, pH 7.5, 10% DMSO, tested a minimum of three times
Procedure, shortened: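 Human Factor D hydrolysis of Z-Lys-SBzl (1.29 mM) monitored at 405 nm via DTNB thiol detection for 600 s, 690 nm background subtracted. Buffer 100 mM HEPES, 500 mM NaCl, pH 7.5, 10% DMSO; substrate added immediately or after room-temperature preincubation. IC50 from percent inhibition of rate, at least three tests.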

Factor D, sequence (P00746 26-253): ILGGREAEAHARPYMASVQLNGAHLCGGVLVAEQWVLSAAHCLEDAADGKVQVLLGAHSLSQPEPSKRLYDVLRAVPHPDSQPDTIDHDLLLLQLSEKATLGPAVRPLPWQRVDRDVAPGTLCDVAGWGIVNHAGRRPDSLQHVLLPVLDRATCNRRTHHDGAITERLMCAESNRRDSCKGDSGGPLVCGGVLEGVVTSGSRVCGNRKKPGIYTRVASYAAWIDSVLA

Row | SMILES | IC50 [nM]
1 | C[C@@]12C[C@@H](C(=O)Nc3cccc(Br)n3)N(C(=O)Cn3c4ccc(OC(F)(F)F)cc4c4c(N)ncnc43)[C@@H]1C2 [Compound 334a, (1R,3S,5R)-2-(2-(4-amino-6-(trifluoromethoxy)-9H-pyrimido[4,5-b]indol-9-yl)acetyl)-N-(6-bromopyridin-2-yl)-5-methyl-2-azabicyclo[3.1.0]hexane-3-carboxamide] | < 100
2 | CC1(C)CCCC(NC(=O)[C@@H]2C[C@H]3C[C@H]3N2C(=O)Cn2cnc3c(N)ncnc32)C1 (stereo partly drawn) [Compound 97b, (1R,3S,5R)-2-(2-(6-amino-9H-purin-9-yl)acetyl)-N-(3,3-dimethylcyclohexyl)-2-azabicyclo[3.1.0]hexane-3-carboxamide] | > 1000
3 | Nc1ncnc2c1c1ccc(C(F)(F)F)cc1n2CC(=O)N1[C@@H]2C[C@@H]2C[C@H]1C(=O)Nc1cccc(Br)n1 [Compound 16e, (1R,3S,5R)-2-(2-(4-amino-7-(trifluoromethyl)-9H-pyrimido[4,5-b]indol-9-yl)acetyl)-N-(6-bromopyridin-2-yl)-2-azabicyclo[3.1.0]hexane-3-carboxamide] | < 100
4 | Nc1ncnc2c1c1cc(C(F)(F)F)ccc1n2CC(=O)N1C[C@H](N)C[C@H]1C(=O)Nc1cccc(Br)n1 [Compound 201e, (2S,4R)-4-amino-1-(2-(4-amino-6-(trifluoromethyl)-9H-pyrimido[4,5-b]indol-9-yl)acetyl)-N-(6-bromopyridin-2-yl)pyrrolidine-2-carboxamide] | 100 to 1000
5 | Nc1ncnc2c1c1cc(Cl)ccc1n2CC(=O)N1[C@@H]2C[C@@H]2C[C@H]1C(=O)Nc1cccc(Br)n1 [Compound 236f, (1R,3S,5R)-2-(2-(4-amino-6-chloro-9H-pyrimido[4,5-b]indol-9-yl)acetyl)-N-(6-bromopyridin-2-yl)-2-azabicyclo[3.1.0]hexane-3-carboxamide] | < 100
6 | Cc1cc2c(cc1F)c1c(N)ncnc1n2CC(=O)N1[C@H](C(=O)Nc2cccc(Br)n2)C[C@@]2(C)C[C@@H]12 [Compound 382a, (1R,3S,5R)-2-(2-(4-amino-6-fluoro-7-methyl-9H-pyrimido[4,5-b]indol-9-yl)acetyl)-N-(6-bromopyridin-2-yl)-5-methyl-2-azabicyclo[3.1.0]hexane-3-carboxamide] | < 100
7 | Nc1nc(Cl)nc2c1ccn2CC(=O)N1[C@@H]2C[C@@H]2C[C@H]1C(=O)Nc1cccc(Br)n1 [Compound 90d, (1R,3S,5R)-2-(2-(4-amino-2-chloro-7H-pyrrolo[2,3-d]pyrimidin-7-yl)acetyl)-N-(6-bromopyridin-2-yl)-2-azabicyclo[3.1.0]hexane-3-carboxamide] | > 1000
8 | Cc1ccc(Cl)nc1NC(=O)[C@@H]1C[C@@H](F)CN1C(=O)Cn1c2ncnc(N)c2c2cc(C(F)(F)F)cc(C)c21 [Compound 365c, (2S,4R)-1-(2-(4-amino-8-methyl-6-(trifluoromethyl)-9H-pyrimido[4,5-b]indol-9-yl)acetyl)-N-(6-chloro-3-methylpyridin-2-yl)-4-fluoropyrrolidine-2-carboxamide] | < 100
9 | C[C@@H]1C[C@@H](C(=O)NCc2cccc(Cl)c2F)N(C(=O)Cn2cnc3c(N)ncnc32)C1 [Compound 121d, (2S,4R)-1-(2-(6-amino-9H-purin-9-yl)acetyl)-N-(3-chloro-2-fluorobenzyl)-4-methylpyrrolidine-2-carboxamide] | > 1000
10 | COc1cc([N+](=O)[O-])cc2c3c(N)ncnc3n(CC(=O)N3[C@@H]4C[C@@H]4C[C@H]3C(=O)Nc3cccc(Br)n3)c12 [Compound 242g, (1R,3S,5R)-2-(2-(4-amino-8-methoxy-6-nitro-9H-pyrimido[4,5-b]indol-9-yl)acetyl)-N-(6-bromopyridin-2-yl)-2-azabicyclo[3.1.0]hexane-3-carboxamide] | < 100
11 | COc1ccc2c(c1)c1c(N)ncnc1n2CC(=O)N1[C@H](C(=O)Nc2nc(Br)ccc2C)C[C@@]2(C)C[C@@H]12 [Compound 252a, (1R,3S,5R)-2-(2-(4-amino-6-methoxy-9H-pyrimido[4,5-b]indol-9-yl)acetyl)-N-(6-bromo-3-methylpyridin-2-yl)-5-methyl-2-azabicyclo[3.1.0]hexane-3-carboxamide] | < 100
12 | Nc1ncnc2c1c1cc(C(F)(F)F)ccc1n2CC(=O)N1C[C@H](F)C[C@H]1C(=O)Nc1cccc(Cl)n1 [Compound 246b, (2S,4R)-1-(2-(4-amino-6-(trifluoromethyl)-9H-pyrimido[4,5-b]indol-9-yl)acetyl)-N-(6-chloropyridin-2-yl)-4-fluoropyrrolidine-2-carboxamide] | < 100
13 | Nc1ncnc2c1c1cccc(F)c1n2CC(=O)N1[C@@H]2C[C@@H]2C[C@H]1C(=O)Nc1cccc(Br)n1 [Compound 51g, (1R,3S,5R)-2-(2-(4-amino-8-fluoro-9H-pyrimido[4,5-b]indol-9-yl)acetyl)-N-(6-bromopyridin-2-yl)-2-azabicyclo[3.1.0]hexane-3-carboxamide] | < 100
14 | Cc1cc(C(=O)O)cc2c3c(N)ncnc3n(CC(=O)N3[C@H](C(=O)Nc4cccc(Br)n4)C[C@@]4(C)C[C@@H]34)c12 [Compound 219a, 4-amino-9-(2-((1R,3S,5R)-3-((6-bromopyridin-2-yl)carbamoyl)-5-methyl-2-azabicyclo[3.1.0]hexan-2-yl)-2-oxoethyl)-8-methyl-9H-pyrimido[4,5-b]indole-6-carboxylic acid] | < 100
15 | Cc1ccc(Br)nc1NC(=O)[C@@H]1C[C@@H](F)CN1C(=O)Cn1c2ccc(C(F)(F)F)cc2c2c(N)ncnc21 [Compound 14a, (2S,4R)-1-(2-(4-amino-6-(trifluoromethyl)-9H-pyrimido[4,5-b]indol-9-yl)acetyl)-N-(6-bromo-3-methylpyridin-2-yl)-4-fluoropyrrolidine-2-carboxamide] | < 100
16 | COC(=O)c1cccc2c3c(N)ncnc3n(CC(=O)N3[C@@H]4C[C@@H]4C[C@H]3C(=O)Nc3cccc(Br)n3)c12 [Compound 47g, methyl 4-amino-9-(2-((1R,3S,5R)-3-((6-bromopyridin-2-yl)carbamoyl)-2-azabicyclo[3.1.0]hexan-2-yl)-2-oxoethyl)-9H-pyrimido[4,5-b]indole-8-carboxylate] | < 100
17 | Nc1ncnc2c1c1cc(-c3ccoc3)ccc1n2CC(=O)N1[C@@H]2C[C@@H]2C[C@H]1C(=O)Nc1cccc(Br)n1 [Compound 275c, (1R,3S,5R)-2-(2-(4-amino-6-(furan-3-yl)-9H-pyrimido[4,5-b]indol-9-yl)acetyl)-N-(6-bromopyridin-2-yl)-2-azabicyclo[3.1.0]hexane-3-carboxamide] | < 100
18 | COC(=O)c1cnc2c(ccn2CC(=O)N2C[C@H](F)C[C@H]2C(=O)NCc2cccc(Cl)c2F)c1N [Compound 147a, methyl 4-amino-1-(2-((2S,4R)-2-((3-chloro-2-fluorobenzyl)carbamoyl)-4-fluoropyrrolidin-1-yl)-2-oxoethyl)-1H-pyrrolo[2,3-b]pyridine-5-carboxylate] | > 1000
19 | CC1CC(CNC(=O)[C@@H]2C[C@H]3C[C@H]3N2C(=O)Cn2cnc3c(N)ncnc32)C1 (stereo partly drawn) [Compound 100b, (1R,3S,5R)-2-(2-(6-amino-9H-purin-9-yl)acetyl)-N-((3-methylcyclobutyl)methyl)-2-azabicyclo[3.1.0]hexane-3-carboxamide] | > 1000
20 | C[C@@]12C[C@@H](C(=O)Nc3cccc(Br)n3)N(C(=O)Cn3c4cnccc4c4c(N)ncnc43)[C@@H]1C2 [Compound 182a, (1R,3S,5R)-2-(2-(4-amino-9H-pyrido[4′,3′:4,5]pyrrolo[2,3-d]pyrimidin-9-yl)acetyl)-N-(6-bromopyridin-2-yl)-5-methyl-2-azabicyclo[3.1.0]hexane-3-carboxamide] | < 100
21 | Nc1ccnc2c1ccn2CC(=O)N1C[C@H](F)C[C@H]1C(=O)NCc1cccc(Cl)c1F [Compound 131e, (2S,4R)-1-(2-(4-amino-1H-pyrrolo[2,3-b]pyridin-1-yl)acetyl)-N-(3-chloro-2-fluorobenzyl)-4-fluoropyrrolidine-2-carboxamide] | 100 to 1000
22 | C[C@@]12C[C@@H](C(=O)Nc3cccc(Br)n3)N(C(=O)Cn3c4ncnc(N)c4c4cc(Br)cc(F)c43)[C@@H]1C2 [Compound 377a, (1R,3S,5R)-2-(2-(4-amino-6-bromo-8-fluoro-9H-pyrimido[4,5-b]indol-9-yl)acetyl)-N-(6-bromopyridin-2-yl)-5-methyl-2-azabicyclo[3.1.0]hexane-3-carboxamide] | < 100
23 | C[C@@]12C[C@@H](C(=O)Nc3cccc(Br)n3)N(C(=O)Cn3c4ccc(-c5ccccc5)nc4c4c(N)ncnc43)[C@@H]1C2 [Compound 299a, (1R,3S,5R)-2-(2-(4-amino-6-phenyl-9H-pyrido[2′,3′:4,5]pyrrolo[2,3-d]pyrimidin-9-yl)acetyl)-N-(6-bromopyridin-2-yl)-5-methyl-2-azabicyclo[3.1.0]hexane-3-carboxamide] | < 100
24 | Cc1cc(-c2ccnc(C(F)(F)F)c2)cc2c3c(N)ncnc3n(CC(=O)N3[C@H](C(=O)Nc4cccc(Br)n4)C[C@@]4(C)C[C@@H]34)c12 [Compound 355a, (1R,3S,5R)-2-(2-(4-amino-8-methyl-6-(2-(trifluoromethyl)pyridin-4-yl)-9H-pyrimido[4,5-b]indol-9-yl)acetyl)-N-(6-bromopyridin-2-yl)-5-methyl-2-azabicyclo[3.1.0]hexane-3-carboxamide] | < 100
25 | NCc1cccc(-c2cn(CC(=O)N3C[C@H](F)C[C@H]3C(=O)NCc3cccc(Cl)c3F)c3ncnc(N)c23)c1 [Compound 115e, (2S,4R)-1-(2-(4-amino-5-(3-(aminomethyl)phenyl)-7H-pyrrolo[2,3-d]pyrimidin-7-yl)acetyl)-N-(3-chloro-2-fluorobenzyl)-4-fluoropyrrolidine-2-carboxamide] | 100 to 1000
26 | C[C@@]12C[C@@H](C(=O)Nc3cccc(Br)n3)N(C(=O)Cn3c4ncnc(N)c4c4cccc(C(F)(F)F)c43)[C@@H]1C2 [Compound 175a, (1R,3S,5R)-2-(2-(4-amino-8-(trifluoromethyl)-9H-pyrimido[4,5-b]indol-9-yl)acetyl)-N-(6-bromopyridin-2-yl)-5-methyl-2-azabicyclo[3.1.0]hexane-3-carboxamide] | > 1000
